Patent US20130331332A1, “COMPOSITION COMPRISING PEROXISOME PROLIFERATOR-ACTIVATED RECEPTOR-GAMMA” (MERZ PHARMA GmbH & Co. KGaA, priority 2011, published 2013)

Legend:
Format in all cases: cell-based, human
[1] = test system: adipose-derived stem cells; experiment: Cell proliferation of adipose-derived stem cells, MTT photometric assay (Example 4); settings: 6 days, FIG. 1
Method: Cell proliferation was determined by a photometric assay using MTT (3-(4,5-dimethylthiazol-2-yl)-2,5-diphenyltetrazolium bromide). In brief, human adipose-derived stem cells were isolated from 5 different donors according to example 3 and 1.5×10^4 cells were seeded in 96-well-plates. Cell samples were used in quadruplicate in each experiment. The human adipose-derived stem cells were cultured for 6 days in two different media containing PPARγ or control media. Recombinant PPARγ (recPPARγ) (Thermo Scientific-Pierce, PPARgamma human) was solved in dimethyl sulfoxide (DMSO) at a concentration of 270 µg/ml and used as a stock solution. Working solutions were prepared by dilution using a factor of 1:100 for a final concentration of 2.7 μg/ml, a factor of 1:270 for a final concentration of 1 μg/ml, a factor of 1:540 for a final concentration of 0.5 μg/ml, and a factor of 1:2700 for a final concentration of 0.1 μg/ml. […]
After 6 days of culturing, the cells were incubated in PBS containing MTT at 37° C. for 4 hours. Afterwards, the medium was removed, 0.04 N HCl was added, and absorbance was measured in a microplate reader at 550 nm versus 650 nm. […]

[2] = test system: adipose-derived stem cells (ASCs); experiment: Oil-O-Red staining of fat vacuoles in adipose-derived stem cells (Example 6); settings: for adipogenic differentiation / development of fat vacuoles (Oil-O-Red staining): 3 weeks of incubation in NM; for formation of fat vacuoles / adipogenic differentiation (Oil-O-Red staining): PPARγ 2.7, 1, 0.5 or 0.1 μg/ml
Method: The induction of adipogenic differentiation by recombinant PPARγ was verified by Oil-O-Red staining of fat vacuoles. Human adipose-derived stem cells (ASCs) from 4 different donors were isolated as described in example 3. The cells were cultured for 2 weeks in “NM”, a standard culture medium of Dulbecco's modified Eagle's medium with a physiologic glucose concentration of 100 mg/dl (DMEM, Sigma, Germany) supplemented with 10% fetal calf serum (FCS; PAA, Germany) and medium was changed every 5-6 days. Cells were cultured in NM containing 2.7 μg/ml, 1 μg/ml, 0.5 μg/ml, or 0.1 μg/ml of PPARγ (Thermo Scientific-Pierce, PPARgamma human), respectively, or 5 μM Pioglitazone (Sigma-Aldrich, Germany), or 5 μM Pioglitazone and 2.7 μg/ml PPARγ, or 5 μM Pioglitazone and 0.1 μg/ml PPARγ. Controls were cultured in NM.
After 2 weeks in culture the formation of lipid droplets which is indicative of the ability to differentiate was verified by Oil-O-Red staining. Oil-O-Red is a fat-soluble dye used for the staining of neutral triglycerides. […] After fixation with 4% paraformaldehyde for 20 minutes, the cells were incubated for a staining time of 1 hour with a 0.5% Oil-O-Red (Sigma) solution in Isopropanol/glycerine. The Oil-O-Red staining was evaluated microscopically.
Further cells were cultured in NM containing 5 μM Pioglitazone (Sigma-Aldrich, Germany), or 5 μM Pioglitazone and 2.7 μg/ml PPARγ, or 5 μM Pioglitazone and 0.1 μg/ml PPARγ.
Further cell samples were cultured in “AM-” composed of DMEM with 4500 mg/l glucose, 10 μM insulin (Novo Nordisk), 1 μM dexamethasone (Ratiopharm), 10% FCS. Cell samples were cultured in AM- containing 2.7 μg/ml, 1 μg/ml, 0.5 μg/ml, or 0.1 μg/ml of PPARγ, respectively, or 5 μM Pioglitazone, or 5 μM Pioglitazone and 2.7 μg/ml PPARγ. Negative control cells were cultured in AM-. Cells incubated with DMEM with 4500mg/l glucose, 10 μM insulin (Novo Nordisk), 1 μM dexamethasone (Ratiopharm), 10% FCS and 1 mM isobutyl-methylxanthin (Sigma) and 200 μM indometacin (Fluka) were used as a positive induction control.
Culturing of cells in NM and in AM- containing the different PPARγ concentrations as given above was repeated with an incubation period of 3 weeks.

[3] = test system: adipose-derived stem cells; experiment: Photometric measurement (optical density) of adipogenic differentiation in adipose-derived stem cells (Example 5); settings: 2 weeks of culturing, FIG. 2
Method: The induction of adipogenic differentiation by recombinant PPARγ was tested in human adipose-derived stem cells from 4 different donors isolated as described in example 3. The cells were cultured for 2 weeks, and media were changed every 5-6 days. Cell samples were seeded with 1.5×10^4 cells in 96-well-plates. Recombinant PPARγ (recPPARγ) (Thermo Scientific-Pierce, PPARgamma human) was solved in dimethyl sulfoxide (DMSO) at a concentration of 270 µg/ml and used as a stock solution. Working solutions were prepared by dilution using a factor of 1:100 for a final concentration of 2.7 μg/ml, a factor of 1:270 for a final concentration of 1 μg/ml, a factor of 1:540 for a final concentration of 0.5 μg/ml, and a factor of 1:2700 for a final concentration of 0.1 μg/ml.
Cells were cultured in two different media, either in “NM”, a standard culture medium of Dulbecco's modified Eagle's medium with a physiologic glucose concentration of 100 mg/dl (DMEM, Sigma, Germany) supplemented with 10% fetal calf serum (FCS; PAA, Germany), or in “AM-” composed of DMEM with 4500 mg/l glucose (high glucose) and 10 μM insulin (Novo Nordisk), 1 μM dexamethasone (Ratiopharm), and 10% FCS. Cell samples were cultured in NM containing 2.7 μg/ml, 1 μg/ml, 0.5 μg/ml, or 0.1 μg/ml of PPARγ, respectively. […] After 2 weeks of culturing, the optical density was measured in a microplate reader. […]

[4] = test system: adipose-derived stem cells (ASC); experiment: Induction of adipocyte differentiation by PPARgamma, oil red O staining (Example 2); settings: PPARgamma 0.0001%, 0.01% and 1% by weight in culture media; 5 days incubation, further 9 days in culture; oil red O staining of lipid droplets
Method: The ability of peroxisome proliferator-activated receptor-gamma to induce differentiation of adipocytes was studied in adipose-derived stem cells (ASC). Human adipose-derived stem cells were obtained by liposuction and cultured following a published procedure (Crandall et al, Endocrinology 140:154-8, 1999). In brief, adipose tissue was digested with 2 mg/mL collagenase in Krebs-Ringer-bicarbonate buffer (pH 7.4). The preadipocyte fraction was resuspended in growth medium, transferred to a culture flask, and maintained in an incubator at 37° C., and 5% CO2. Cell attachment was allowed for 16-20 h and afterwards the cells that had not adhered were removed.
Peroxisome proliferator-activated receptor-gamma (PPARgamma) was added to respective final concentrations of 0.0001%, 0.01% and 1% by weight to the culture media 24 hours after the cells were seeded. The media was changed every three days and supplemented with fresh peroxisome proliferator-activated receptor-gamma. The cells were incubated with peroxisome proliferator-activated receptor-gamma for 5 days. Afterwards peroxisome proliferator-activated receptor-gamma was removed, and the cells were kept for further 9 days in culture for observation of lipid droplet formation, which is indicative of the ability to differentiate. Controls were run in medium without peroxisome proliferator-activated receptor-gamma. […]

| Molecule | cell proliferation (MTT assay) ([1]; 5 μM Pioglitazone alone, NM standard medium) | adipogenic differentiation / development of fat vacuoles (Oil-O-Red staining) [2] | cell proliferation (MTT assay) ([1]; 2.7, 1, 0.5 or 0.1 μg/ml PPARγ, both media (NM and AM-)) | formation of fat vacuoles / adipogenic differentiation (Oil-O-Red staining) ([2]; 2 weeks of culture in AM- medium) | formation of fat vacuoles / adipogenic differentiation (Oil-O-Red staining) ([2]; 2 weeks of culture in NM, Pioglitazone 5 μM, FIG. 3) | formation of fat vacuoles and adipogenic differentiation (Oil-O-Red staining) ([2]; 3 weeks of culture in AM- medium) | cytotoxic effect on cells (cell number by optical density) ([3]; 2.7-0.1 μg/ml PPARγ) | differentiation and proliferation (increase in optical density) ([3]; both media (NM and AM-)) | Degree of differentiation [4] |
| --- | --- | --- | --- | --- | --- | --- | --- | --- | --- |
| CCc1ccc(CCOc2ccc(CC3SC(=O)NC3=O)cc2)nc1 (racemic) [Pioglitazone, (RS)-5-{p-[2-(5-ethyl-2-pyridyl)ethoxy]benzyl}-2,4-thiazolidinedione, reference compound] | no effect | only slightly induced differentiation | – | – | – | – | – | – | – |
| PPARγ: Recombinant PPARγ protein (Thermo Scientific-Pierce, PPARgamma human); nuclear hormone receptor transcription factor | – | heavily induced adipogenic differentiation | stimulated the proliferation of the adipose-derived stem cells in a dose-dependent manner | able to induce the formation of fat vacuoles | able to induce the formation of fat vacuoles | induced the formation of fat vacuoles and adipogenic differentiation | no cytotoxic effect | stimulated the differentiation and proliferation | ++ to +++ |
